Each block holds one molecule with its values, some of them ahead of it.
What was measured:
[1] = test system: BRD2, BRD3 and BRD4; experiment: Immunoblot degradation of BET proteins in HEK293 cells; assay type: cell-based, human
Description: To evaluate the ability of trivalent compounds to induce intracellular degradation of BET proteins, the inventors first treated human HEK293 cells for 4 hours at 1 μM concentration and assessed levels of BRD2, BRD3 and BRD4 by western blot. […] To confirm the greater activity of VHL-based compounds compared to CRBN-based PROTACs they next used live cell continual luminescent monitoring of CRISPR/Cas9 endogenously tagged HiBiT-BRD4 in HEK293 cells over 24 h^29,31. […] To confirm greater potency of VHL-based compounds, the inventors evaluated growth inhibition profiles of BET-sensitive cancer cell lines MV4; 11 (FIG. 1f), A549 and HL-60 (FIG. 6c) with compound treatments. […] Together, the initial screens support greater activity of structure-guided designed VHL degraders over their homologous CRBN molecules.
(§1) Degradation assays. MV4; 11 cells were seeded at 1×10^6 cells/mL of 10 cm dishes 12-24 h before treatment. 22Rv1 and HEK293 cells were seeded at 2.5-6×10^5 cells/well of 6 well plates 12-24 h before treatment. Cells were treated with test compounds with and without inhibitors as indicated or an equivalent volume of DMSO and lysed at the stated time point. For lysis, cells were washed twice in ice cold PBS (Invitrogen) then lysed in 250 μL/plate for MV4; 11 cells or 80 μL/well for 22Rv1 and HEK293 cells of ice cold lysis buffer containing 50 mM Tris hydrochloride pH 7.4, 150 mM sodium chloride, 1 mM EDTA pH 7.4, 1% v/v Triton X-100, 1×Halt™ Protease Inhibitor Cocktail (ThermoFisher). Lysates were sonicated, cleared by centrifugation at 4° C., at 15800×g for 10 mins and the supernatants stored at −80° C. Protein concentration was determined by BCA assay (Pierce) and the absorbance at 562 nm measured by spectrophotometry (NanoDrop ND1000). […] Bands were detected using a ChemiDoc MP imaging system (BioRad) and quantified (Image Studio Lite, version 5.2) with normalisation to β-actin and the DMSO control per time point. […]

[2] = test system: HiBiT-BRD2, BRD3, and BRD4; experiment: Degradation washout experiment, CRISPR HiBiT-BET HEK293 cells; assay type: cell-based, human; conditions: 100 nM for 3.5 h then washout, monitored 50 h
Description: Media containing the 10 nM and/or 100 nM compounds was removed at 3.5 h, indicated on the graphs, and replaced with media lacking compounds for the remainder of the experiment. Luminescence (RLU) was continuously monitored over a 50 h time period and is plotted normalized to the DMSO control as Fractional RLU.
To assess whether the trivalent PROTAC induced also a more sustained degradation of BET proteins in cells compared to MZ1 or (R,S)-SIM1, degradation washout experiments were performed. CRISPR HiBiT-BET HEK293 cells were treated with equivalent concentration (100 nM) of SIM1, (R,S)-SIM1 and MZ1 compounds for 3.5 h, then media was removed and replaced with media lacking compounds. […] The HiBiT-BET protein levels were continuously monitored from the initial addition of the compounds and immediately after the wash for a total time of 50 h.

[3] = test system: 22Rv1 cells; experiment: Caspase-Glo 3/7 assay; assay type: cell-based; conditions: 22Rv1, 24 h
Description: Caspase-Glo® 3/7 assays. 22Rv1 cells were seeded at 10,000 cells/well of white 96 well plates (Corning #3917) 12-24 h before treatment with test compounds with and without inhibitors or an equivalent volume of DMSO for 24 h. 100 μL/well of Caspase-Glo@ 3/7 Reagent (Promega) was added and the plate shaken at 500 rpm for 30 seconds. The plate was incubated for 2 h and luminescence measured using a PHERAstar FS plate reader (BMG Labtech).

[4] = biological target: T1, HiBiT-BRD4 (Homo sapiens, UniProt O60885); experiment: NanoBRET live cell residence time; assay type: cell-based; conditions: live cells
T1 construct: endogenously HiBiT tag the N-terminal genomic loci of BRD2, BRD3, or BRD4; endogenous in cells; host or cells: HEK293 stably expressing LgBiT, CRISPR/Cas9 edited
Description: (§2) NanoBRET Target Engagement and Residence Time. For target engagement experiments in live and permeabilized cells, CRISPR HiBiT-BRD4 HEK293 cells stably expressing LgBiT were plated into white 96-well tissue culture plates at a density of 2×10^4 cells/well. Cells were equilibrated for 1 h with energy transfer probes and the indicated test compound prior to NanoBRET measurements. NanoBRET tracers were prepared at a working concentration of 20× in tracer dilution buffer (12.5 mM HEPES, 31.25% PEG-400, pH 7.5). NanoBRET BRD Tracer-02 was added to cells at a final concentration of 0.5 μM. To measure NanoBRET in live cells, NanoBRET NanoGlo Substrate and Extracellular NanoLuc Inhibitor (Promega) were added according to the manufacturer's recommended protocol, and filtered luminescence was measured on a GloMax Discover luminometer equipped with 450 nm BP filter (donor) and 600 nm LP filter (acceptor) using 0.3 s integration time. To measure NanoBRET in permeabilized cells, digitonin was added to the cells to a final concentration of 50 μg/mL and Extracellular NIuc inhibitor was omitted during the detection step. […] Cells were incubated in 15 mL conical tubes with caps loosened in a tissue culture incubator for 1 h. Following incubation, cells were spun at 300×g for 5 min, washed once with Opti-MEM, spun a second time at 300×g for 5 min, then resuspended with fresh Opti-MEM before plating at 2×10^4 cells/well. NanoBRET BRD Tracer-02 was added at a final concentration of 0.5 μM cells and kinetic NanoBRET measurements were collected on a GloMax Discover. NanoBRET ratios were expressed in milliBRET units and calculated according to the equation in the NanoBRET Ubiquitination, Ternary Complex and Biosensor Experiments section.

[5] = test system: 22Rv1 cells; experiment: PARP cleavage immunoblot in 22Rv1 cells; assay type: cell-based; conditions: 22Rv1, 10 nM, 24 h (MT1, MZ1 up to 48 h)
Description: Next, the inventors assessed the functional effects of SIM1 on the viability of 22Rv1 cancer cells. […] Cells died of apoptosis as indicated by prevented cleavage of PARP upon co-treatment with QVD-OPh, a pan-caspase inhibitor, and not of necroptosis, as shown by co-treatment with Necrostatin-1 (FIG. 3d and FIG. 10a).
as §1, with “Lysates were sonicated, cleared by centrifugation at 4° C., at 15800×g for 10 mins and the supernatants stored at −80° C.” left out

[6] = biological target: T1, HiBiT-BRD4; experiment: NanoBRET target engagement, permeabilized and live cells; assay type: cell-based; conditions: for IC80: live cell format, unit given with each value, read-out: IC80 for tracer displacement
Description: Cells were treated with a fluorescent BET tracer, then incubated with the indicated compounds at various concentrations to measure competitive displacement.
as §2

[7] = test system: VHL and full-length BRD4 WT, N140F, or N433F; experiment: Kinetic NanoBRET ternary complex assay, NanoLuc-BRD4 with HaloTag-VHL; assay type: cell-based, human
Description: NanoBRET Ubiquitination, Ternary Complex, and Biosensor Experiments. For endogenous live cell BET:Ubiquitin and BET:VHL assays, CRISPR HiBiT-BRD2, HiBiT-BRD3, and HiBiT-BRD4 HEK293 cells stably expressing LgBiT were transfected with 2 μg of HaloTag-UBB or HaloTag-VHL vectors in 6-well plates using FuGENE HD (Promega). For full transient NanoBRET experiments with NanoLuc-BRD4 WT, N433F, or N140F mutants, HEK293 cells (8×10^5) were co-transfected with 0.02 μg NanoLuc-BRD4 and 2 μg of HaloTag-VHL vectors. For transient NanoBRET experiments with the BRD4 NL-BD1-BD2-HT biosensor containing either the WT tandem BD1-BD2 domain (AA 44-460) or containing the N433F mutation, HEK293 cells (8×10^5) were transfected with 0.02 μg biosensor plasmid and 2 μg carrier DNA. […] NanoBRET NanoGlo (Promega) substrate was added and BRET was measured two hours post-compound treatment using a GloMax Discover Microplate Reader (Promega). Dual filtered luminescence was collected with a 460/80 nm bandpass filter and a 610 nm long pass filter (acceptor, HaloTag NanoBRET ligand) using an integration time of 0.5 s. For all NanoBRET experiments, background subtracted NanoBRET ratios expressed in milliBRET units were calculated from the equation: […]

[8] = test system: MV4; 11 cells; experiment: Correlative cell viability in cMyc-HiBiT MV4;11 cells (CellTiter-Glo); assay type: cell-based; conditions: 1 nM, after 6 h
Description: Monitoring cMyc Loss and Cell Viability in MV4; 11 Cells. CRISPR cMyc-HiBiT MV4; 11 cells (Promega) were plated at a density of 5×10^4 cells per well in solid, white 96-well tissue culture plates (Corning Costar #3917). Following an overnight incubation, they were treated with 1-100 nM concentration of the indicated compounds and at the plotted time points, cMyc levels were determined using luminescent measurement with NanoGlo HiBiT lytic reagent (Promega). Replicate plate of all compound treatments were prepared and at identical timepoints as the protein level measurements, cell viability was measured using Cell-Titer Glo (Promega). Plates were shaken on an orbital shaker for 10-20 min before reading luminescence on a GloMax Discover Microplate Reader (Promega).

Compound: Cc1ncsc1-c1ccc(CNC(=O)[C@@H]2C[C@@H](O)CN2C(=O)[C@@H](NC(=O)COCC(C)(COCCOCCOCCNC(=O)C[C@@H]2N=C(c3ccc(Cl)cc3)c3c(sc(C)c3C)-n3c(C)nnc32)COCCOCCOCCNC(=O)C[C@H]2N=C(c3ccc(Cl)cc3)c3c(sc(C)c3C)-n3c(C)nnc32)C(C)(C)C)cc1 (stereo partly drawn) [(R,S)-SIM1]
degradation of BRD2, BRD3 and BRD4 by western blot ([1]; HEK293 cells, 1 μM, 4 h): behave similarly to MZ1 and less potently than SIM1 | BET protein level after washout [2]: greater and occurred faster than those observed with SIM1

EC50 [3]: 0.09 µM
Compound: Cc1ncsc1-c1ccc([C@H](C)NC(=O)[C@@H]2C[C@@H](O)CN2C(=O)[C@@H](NC(=O)COCCCOCCNC(=O)C[C@@H]2N=C(c3ccc(Cl)cc3)c3c(sc(C)c3C)-n3c(C)nnc32)C(C)(C)C)cc1 [ARV-771]

Compound: Cc1ncsc1-c1ccc(CNC(=O)[C@@H]2C[C@@H](O)CN2C(=O)[C@@H](NC(=O)COCCOCCOCCNC(=O)C[C@@H]2N=C(c3ccc(Cl)cc3)c3c(sc(C)c3C)-n3c(C)nnc32)C(C)(C)C)cc1 [MZ1]
preference of degradation among BET proteins ([1]; immunoblot, 4 h): […] | DC50 ([1]; immunoblot, 4 h treatment, across all the BET proteins): […] | EC50 [3]: 0.15 µM | residence time on BRD4 [4]: residence time between the monovalent and bivalent BET inhibitors | PARP cleavage / cell death [5]: did not cause observable PARP cleavage | BET protein level after washout [2]: greater and occurred faster than those observed with SIM1 | IC80 [6]: 10 µM

residence time on BRD4 [4]: identical displacement kinetics as MT1 | cell permeability ([6]; inferred from live versus permeabilized cells): readily cell-permeable | IC80 [6]: 0.1 µM | shift of binding affinity to BRD4 compared to MT1 ([6]; live cells): 10 ×
Compound: Cc1ncsc1-c1ccc(CNC(=O)[C@@H]2C[C@H](O)CN2C(=O)[C@@H](NC(=O)COCC(C)(COCCOCCOCCNC(=O)C[C@@H]2N=C(c3ccc(Cl)cc3)c3c(sc(C)c3C)-n3c(C)nnc32)COCCOCCOCCNC(=O)C[C@@H]2N=C(c3ccc(Cl)cc3)c3c(sc(C)c3C)-n3c(C)nnc32)C(C)(C)C)cc1 [cis-SIM1, N,N′-(11-((2-(((S)-1-((2S,4S)-4-hydroxy-2-((4-(4-methylthiazol-5-yl)benzyl)carbamoyl)pyrrolidin-1-yl)-3,3-dimethyl-1-oxobutan-2-yl)amino)-2-oxoethoxy)methyl)-11-methyl-3,6,9,13,16,19-hexaoxahenicosane-1,21-diyl)bis(2-((S)-4-(4-chlorophenyl)-2,3,9-trimethyl-6H-thieno[3,2-f][1,2,4]triazolo[4,3-a][1,4]diazepin-6-yl)acetamide)]
ternary complex formation [7]: not | measurable cellular death [8]: not | binding to endogenous HiBiT-BRD4 ([6]; permeabilized cells): near-identical binding affinities and IC50 values

Reference: patent publication US20240252654A1, “IMPROVED SMALL MOLECULES” (University of Dundee, priority 2020, published 2024)
